Several values for one entry are separate records, joined by “and”; a condition that tells them apart may be missing. Equal values may be shown once. Read-outs that look alike come from different tables or passages of the source.
Tests used:
KRAS G12C = KRAS G12C (Homo sapiens (Human), UniProt P01116+P62937, G12C); assay: Ras-Raf disruption/FRET/MOA assay (BRAF RBD, Cyclophilin A); type: biochemical; conditions: read-out: KRAS G12C FRET IC50
Summary of the method: (§1)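 TR-FRET read after 1.5 h with 10 nM anti-His Eu-W1024 and 50 nM anti-GST APC, following 3 h at 25 °C of GMPPNP-loaded His6-Ras (12.5 nM), GST-BRAF RBD (50 nM) and Cyclophilin A (25 μM) with compound from 30 μM final, 10 points, 3-fold. IC50 reported; pH 7.3 HEPES, 100 mM NaCl.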

KRAS G12D = KRAS G12D (Homo sapiens (Human), UniProt P01116+P62937, G12D); assay: as above; type: biochemical; conditions: read-out: KRAS G12D FRET IC50
Summary of the method: as §1

KRAS G12S = KRAS G12S (Homo sapiens (Human), UniProt P01116+P62937, G12S); assay: as above; type: biochemical; conditions: read-out: KRAS G12S FRET IC50
Summary of the method: as §1

KRAS G12V = KRAS G12V (Homo sapiens (Human), UniProt P01116+P62937, G12V); assay: as above; type: biochemical; conditions: read-out: KRAS G12V FRET IC50
Summary of the method: as §1

KRAS G13C = KRAS G13C (Homo sapiens (Human), UniProt P01116+P62937, G13C); assay: as above; type: biochemical; conditions: read-out: KRAS G13C FRET IC50
Summary of the method: as §1

KRAS G13D = KRAS G13D (Homo sapiens (Human), UniProt P01116+P62937, G13D); assay: as above; type: biochemical; conditions: read-out: KRAS G13D FRET data IC50
Summary of the method: as §1

KRAS WT = KRAS WT (Homo sapiens (Human), UniProt P01116+P62937); assay: as above; type: biochemical; conditions: read-out: KRAS WT FRET data IC50
Summary of the method: as §1

NRAS G12C = NRAS G12C (Homo sapiens (Human), UniProt P01111+P62937, G12C); assay: as above; type: biochemical; conditions: read-out: NRAS G12C FRET data IC50
Summary of the method: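 Ras-GMPPNP (12.5 nM), BRAF RBD (50 nM) and 25 μM Cyclophilin A were incubated with compound for 3 h at 25° C, then detected 1.5 h with anti-His Eu and anti-GST APC; IC50 values follow from the reduced TR-FRET ratio.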

NCI-H358 (K-Ras G12C) = assay: CellTiter-Glo cell viability assay, NCI-H358; type: cell-based, human
Summary of the method: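 Viability is measured as ATP-dependent luminescence (CellTiter-Glo) five days into compound treatment. Responses are normalized to vehicle (DMSO) wells and fitted by four-parameter logistic regression.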

[1] = Homo sapiens, NCI-H358, 120 h, 5-day treatment, read-out: H358 Cell Viability assay data (K-Ras G12C, IC50)

Chain of KRAS G12D (P01116 other isoform, or with tags, fused parts or gaps G12D): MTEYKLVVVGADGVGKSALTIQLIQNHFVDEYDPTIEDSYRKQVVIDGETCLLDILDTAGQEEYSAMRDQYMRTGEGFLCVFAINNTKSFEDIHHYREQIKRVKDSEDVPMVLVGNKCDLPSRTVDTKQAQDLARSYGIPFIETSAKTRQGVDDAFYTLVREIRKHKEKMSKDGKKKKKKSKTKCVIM
Chain of KRAS G12D (P62937 whole entry): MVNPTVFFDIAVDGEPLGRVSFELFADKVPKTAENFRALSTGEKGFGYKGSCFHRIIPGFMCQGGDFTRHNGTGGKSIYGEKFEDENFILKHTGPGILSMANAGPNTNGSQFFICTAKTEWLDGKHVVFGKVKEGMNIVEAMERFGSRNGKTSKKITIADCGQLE
Chain of KRAS G13D (P01116 other isoform, or with tags, fused parts or gaps G13D): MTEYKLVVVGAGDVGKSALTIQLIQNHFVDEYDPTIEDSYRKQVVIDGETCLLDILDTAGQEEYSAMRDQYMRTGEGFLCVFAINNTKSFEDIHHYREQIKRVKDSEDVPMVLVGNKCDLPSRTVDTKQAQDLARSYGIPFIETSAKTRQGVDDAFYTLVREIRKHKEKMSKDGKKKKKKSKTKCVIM
Chain of KRAS G13D (P62937 whole entry): as the sequence (P62937 whole entry) above
Chain of NRAS G12C (P01111 whole entry G12C): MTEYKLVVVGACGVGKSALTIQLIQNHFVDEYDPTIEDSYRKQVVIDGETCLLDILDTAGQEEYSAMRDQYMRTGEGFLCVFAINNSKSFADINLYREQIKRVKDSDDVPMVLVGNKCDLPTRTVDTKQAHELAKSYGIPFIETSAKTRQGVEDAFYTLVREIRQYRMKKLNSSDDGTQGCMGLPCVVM
Chain of NRAS G12C (P62937 whole entry): as the sequence (P62937 whole entry) above
Chain of KRAS G13C (P01116 other isoform, or with tags, fused parts or gaps G13C): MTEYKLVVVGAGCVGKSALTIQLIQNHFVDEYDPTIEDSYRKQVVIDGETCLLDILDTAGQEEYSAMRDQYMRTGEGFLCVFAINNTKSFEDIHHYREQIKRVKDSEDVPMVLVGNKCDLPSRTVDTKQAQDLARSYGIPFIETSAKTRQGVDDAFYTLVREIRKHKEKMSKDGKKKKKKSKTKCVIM
Chain of KRAS G13C (P62937 whole entry): as the sequence (P62937 whole entry) above
Chain of KRAS G12S (P01116 other isoform, or with tags, fused parts or gaps G12S): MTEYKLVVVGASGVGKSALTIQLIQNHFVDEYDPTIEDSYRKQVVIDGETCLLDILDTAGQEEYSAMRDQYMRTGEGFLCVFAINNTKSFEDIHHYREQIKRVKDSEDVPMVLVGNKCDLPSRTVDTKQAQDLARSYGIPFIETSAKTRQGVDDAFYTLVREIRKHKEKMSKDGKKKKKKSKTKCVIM
Chain of KRAS G12S (P62937 whole entry): as the sequence (P62937 whole entry) above
Chain of KRAS G12C (P01116-2 other isoform, or with tags, fused parts or gaps G12C): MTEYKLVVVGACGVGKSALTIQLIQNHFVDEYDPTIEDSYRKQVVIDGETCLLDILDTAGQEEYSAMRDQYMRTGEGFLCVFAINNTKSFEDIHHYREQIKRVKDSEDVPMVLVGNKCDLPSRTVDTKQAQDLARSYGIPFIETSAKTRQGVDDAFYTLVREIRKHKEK
Chain of KRAS G12C (P62937 whole entry): as the sequence (P62937 whole entry) above
Chain of KRAS G12V (P01116 other isoform, or with tags, fused parts or gaps G12V): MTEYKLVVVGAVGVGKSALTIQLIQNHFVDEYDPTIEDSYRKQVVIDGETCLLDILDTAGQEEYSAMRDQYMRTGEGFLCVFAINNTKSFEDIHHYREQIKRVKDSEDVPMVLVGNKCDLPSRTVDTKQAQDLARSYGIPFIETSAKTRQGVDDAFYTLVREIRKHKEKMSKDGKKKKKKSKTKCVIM
Chain of KRAS G12V (P62937 whole entry): as the sequence (P62937 whole entry) above
Chain of KRAS WT (P01116 other isoform, or with tags, fused parts or gaps): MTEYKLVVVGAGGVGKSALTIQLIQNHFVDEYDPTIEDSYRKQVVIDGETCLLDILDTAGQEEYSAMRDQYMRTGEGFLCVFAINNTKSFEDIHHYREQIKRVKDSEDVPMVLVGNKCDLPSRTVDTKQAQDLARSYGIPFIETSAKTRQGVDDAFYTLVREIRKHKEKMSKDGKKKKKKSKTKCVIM
Chain of KRAS WT (P62937 whole entry): as the sequence (P62937 whole entry) above

Row | SMILES | IC50 (KRAS G12C) | IC50 (KRAS G12D) | IC50 (KRAS G12S) | IC50 (KRAS G12V) | IC50 (KRAS G13C) | IC50 (KRAS G13D) | IC50 (KRAS WT) | IC50 (NRAS G12C) | IC50 (NCI-H358 (K-Ras G12C); [1]) | IC50 (NCI-H358 (K-Ras G12C); 5-day treatment, read-out: H358 Cell Viability assay data (K-Ras G12C, IC50)) | IC50 (NCI-H358 (K-Ras G12C); Homo sapiens, NCI-H358, 120 h, read-out: H358 Cell Viability assay data (K-Ras G12C, IC50, uM), 5-day treatment)
1 | CCn1c(-c2cccnc2[C@H](C)OC)c2c3cc(ccc31)-c1cc(O)cc(c1)C[C@H](NC(=O)[C@H](C(C)C)N(C)C(=O)[C@H]1CCN(C(C)=O)C1)C(=O)N1CCC[C@H](N1)C(=O)OCC(C)(C)C2 [Compound A5] | 0.01 to 0.1 µM | 0.1 to 1 µM | 0.01 to 0.1 µM | 0.01 to 0.1 µM | 0.1 to 1 µM | 0.1 to 1 µM | 0.1 to 1 µM | 0.01 to 0.1 µM | 0.01 to 0.1 µM |  | 
2 | CCn1c(-c2cccnc2[C@H](C)OC)c2c3cc(ccc31)-c1csc(n1)C[C@H](NC(=O)[C@H](C(C)C)N(C)C(=O)[C@H]1CCN(C(=O)CN(C)C)C1)C(=O)N1CCC[C@H](N1)C(=O)OCC(C)(C)C2 [Compound A97] | 0.1 to 1 µM | 1 to 10 µM | 1 to 10 µM | 1 to 10 µM | 1 to 10 µM | 1 to 10 µM | 1 to 10 µM | 0.1 to 1 µM | 0.01 to 0.1 µM |  | 
3 | CCn1c(-c2cccnc2[C@H](C)OC)c2c3cc(ccc31)-c1cc(O)cc(c1)C[C@H](NC(=O)C(=C(C)C)N(C)C(C)=O)C(=O)N1CCC[C@H](N1)C(=O)OCC(C)(C)C2 [Compound A142] | 1 to 10 µM | > 10 µM | 1 to 10 µM | 1 to 10 µM | 0.1 to 1 µM | 1 to 10 µM | 1 to 10 µM | 1 to 10 µM | 0.1 to 1 µM |  | 
4 | CCn1c(-c2cccnc2[C@H](C)OC)c2c3cc(ccc31)-c1cc(cc3nc[nH]c13)C[C@H](NC(=O)[C@H](C(C)C)N(C)C(C)=O)C(=O)N1CCC[C@H](N1)C(=O)OCC(C)(C)C2 [Compound A153] |  | > 10 µM | > 10 µM | > 10 µM | > 10 µM | > 10 µM | > 10 µM | > 10 µM | 0.1 to 1 µM |  | 
5 | CCn1c(-c2cccnc2[C@H](C)OC)c2c3cc(ccc31)-c1cc(cc(S(C)(=O)=O)c1)C[C@H](NC(=O)[C@H](C(C)C)N(C)C(C)=O)C(=O)N1CCC[C@H](N1)C(=O)OCC(C)(C)C2 [Compound A154] |  | > 10 µM | > 10 µM | > 10 µM | > 10 µM | > 10 µM | > 10 µM | > 10 µM | 0.01 to 0.1 µM |  | 
6 | CCn1c(-c2cccnc2[C@H](C)OC)c2c3cc(ccc31)-c1cc(O)cc(c1)C[C@H](NC(=O)[C@H](C(C)C)N(C)C(=O)[C@H]1CCN(C3CC3)C1)C(=O)N1CCC[C@H](N1)C(=O)OCC(C)(C)C2 [Compound A175] | 1 to 10 µM | 1 to 10 µM | 1 to 10 µM | > 10 µM | 0.1 to 1 µM | 1 to 10 µM | 1 to 10 µM | 1 to 10 µM | < 0.01 µM |  | 
7 | CCn1c(-c2cccnc2[C@H](C)OC)c2c3cc(ccc31)-c1cc(O)cc(c1)C[C@H](NC(=O)C1CCC3C1C3(F)F)C(=O)N1CCC[C@H](N1)C(=O)OCC(C)(C)C2 (some centres unmarked) [Compound A181] | 1 to 10 µM | > 10 µM | 1 to 10 µM | 1 to 10 µM | 0.1 to 1 µM | 1 to 10 µM | 1 to 10 µM | 1 to 10 µM | < 0.01 µM | 0.01 to 0.1 µM | 
8 | CCn1c(-c2cccnc2[C@H](C)OC)c2c3cc(ccc31)-c1cc(O)cc(c1)C[C@H](NC(=O)[C@@H]1[C@H]3C[C@H]3CN1C(C)=O)C(=O)N1CCC[C@H](N1)C(=O)OCC(C)(C)C2 [Compound A207] | 0.1 to 1 µM | > 10 µM | 1 to 10 µM | 1 to 10 µM | 0.1 to 1 µM | 1 to 10 µM | 1 to 10 µM | 1 to 10 µM | 0.01 to 0.1 µM |  | 
9 | CCn1c(-c2cccnc2[C@H](C)OC)c2c3cc(ccc31)-c1csc(n1)C[C@H](NC(=O)[C@H](C(C)C)N(C)C(=O)[C@H]1CCN(S(C)(=O)=O)C1)C(=O)N1CCC[C@H](N1)C(=O)OCC(C)(C)C2 [Compound A237] | 1 to 10 µM | > 10 µM | 1 to 10 µM | 1 to 10 µM | 1 to 10 µM | > 10 µM | 1 to 10 µM | 1 to 10 µM |  |  | < 0.01 µM
10 | CCn1c(-c2cccnc2[C@H](C)OC)c2c3cc(ccc31)-c1cccc(c1)C[C@H](NC(=O)[C@H](C(C)C)N(C)C(=O)C1COC1)C(=O)N1CCC[C@H](N1)C(=O)OCC(C)(C)C2 [Compound A246] | 1 to 10 µM | > 10 µM | 1 to 10 µM | 1 to 10 µM | 1 to 10 µM | 1 to 10 µM | 1 to 10 µM | 1 to 10 µM | < 0.01 µM |  | 
11 | CCn1c(-c2cccnc2[C@H](C)OC)c2c3cc(ccc31)-c1cc(O)cc(c1)C[C@H](NC(=O)[C@H](C(C)C)N(C)C(=O)C1CC(=O)N(C3CC3)C1)C(=O)N1CCC[C@H](N1)C(=O)OCC(C)(C)C2 (some centres unmarked) [Compound A252] | 0.01 to 0.1 µM | 0.1 to 1 µM | 0.01 to 0.1 µM | 0.1 to 1 µM and 0.01 to 0.1 µM | 0.01 to 0.1 µM | 0.1 to 1 µM and 0.01 to 0.1 µM | 0.01 to 0.1 µM | 0.01 to 0.1 µM | 0.01 to 0.1 µM |  | 
12 | CCn1c(-c2cnccc2COC)c2c3cc(ccc31)-c1cc(O)cc(c1)C[C@H](NC(=O)[C@H](C(C)C)N(C)C(=O)N1CCNCC1)C(=O)N1CCC[C@H](N1)C(=O)OCC(C)(C)C2 [Compound A255] | 0.01 to 0.1 µM | 0.1 to 1 µM | 0.1 to 1 µM | 0.1 to 1 µM | 0.01 to 0.1 µM | 0.01 to 0.1 µM | 0.1 to 1 µM | 0.1 to 1 µM | < 0.01 µM |  | 
13 | CCn1c(-c2cccnc2[C@H](C)OC)c2c3cc(ccc31)-c1csc(n1)C[C@H](NC(=O)[C@H](C(C)C)N(CCc1ccncc1)C1CC1)C(=O)N1CCC[C@H](N1)C(=O)OCC(C)(C)C2 [Compound A556] | 0.1 to 1 µM | 1 to 10 µM | 0.1 to 1 µM | 1 to 10 µM | 0.1 to 1 µM | 1 to 10 µM | 0.1 to 1 µM | 0.1 to 1 µM |  |  | 
14 | CCn1c(-c2cccnc2[C@H](C)OC)c2c3cc(ccc31)-c1csc(n1)C[C@H](NC(=O)[C@H](C(C)C)N(C)C(=O)N1CC[C@@H](F)[C@H](N)C1)C(=O)N1CCC[C@H](N1)C(=O)OCC(C)(C)C2 [Compound A559] | 0.1 to 1 µM | 0.1 to 1 µM | 0.1 to 1 µM | 0.1 to 1 µM | 0.1 to 1 µM | 0.1 to 1 µM | 0.1 to 1 µM | 0.01 to 0.1 µM |  |  | 
15 | CCn1c(-c2cccnc2[C@H](C)OC)c2c3cc(ccc31)-c1csc(n1)C[C@H](NC(=O)[C@H](C(C)C)N(C)C(=O)[C@@H]1OCC[C@@H]1c1ccccc1)C(=O)N1CCC[C@H](N1)C(=O)OCC(C)(C)C2 [Compound A585] | 0.1 to 1 µM | 1 to 10 µM | 0.1 to 1 µM | 0.1 to 1 µM | 0.1 to 1 µM | 1 to 10 µM | 0.1 to 1 µM | 0.1 to 1 µM |  |  | 
16 | CCn1c(-c2cccnc2[C@H](C)OC)c2c3cc(ccc31)-c1cccc(c1)C[C@H](NC(=O)[C@H](C(C)C)N(C)C(=O)[C@@H]1OCC[C@@H]1c1ccccc1)C(=O)N1CCC[C@H](N1)C(=O)OCC(C)(C)C2 [Compound A586] | 0.01 to 0.1 µM | 0.1 to 1 µM | 0.1 to 1 µM | 0.1 to 1 µM | 0.1 to 1 µM | 0.1 to 1 µM | 0.1 to 1 µM | 0.1 to 1 µM |  |  | 
17 | CCn1c(-c2cccnc2[C@H](C)OC)c2c3cc(ccc31)-c1csc(n1)C[C@H](NC(=O)[C@H](C(C)C)N(C)C(=O)N1CCC[C@H]1c1ccccc1)C(=O)N1CCC[C@H](N1)C(=O)OCC(C)(C)C2 [Compound A599] | 1 to 10 µM | 1 to 10 µM | 1 to 10 µM | 1 to 10 µM | 1 to 10 µM | 1 to 10 µM | 1 to 10 µM | 1 to 10 µM |  |  | 
18 | CCn1c(-c2cccnc2[C@H](C)OC)c2c3cc(ccc31)-c1cc(O)cc(c1)C[C@H](NC(=O)[C@H](C(C)C)N(C)C(=O)[C@]1(F)CCN(C(=O)OC)C1)C(=O)N1CCC[C@H](N1)C(=O)OCC(C)(C)C2 [Compound A616] | 0.01 to 0.1 µM | 0.1 to 1 µM | 0.1 to 1 µM | 0.1 to 1 µM | 0.01 to 0.1 µM | 0.1 to 1 µM | 0.01 to 0.1 µM | 0.01 to 0.1 µM |  |  | 
